Assay results reported in ChEMBL document CHEMBL1137945, “Design, synthesis, and activity of HDAC inhibitors with a N-formyl hydroxylamine head group” (Bioorg Med Chem Lett, 2004).

Assays:
Histone deacetylase = experiment: Inhibition of Histone deacetylase (HDAC)of HeLa nuclear extracts; type: protein assay, Homo sapiens
Histone deacetylase 2 = Histone deacetylase 2 (Homo sapiens, UniProt Q92769); experiment: Inhibition of Histone deacetylase 2 (HDAC2) activity of HeLa nuclear extracts
Histone deacetylase 8 = biological target: T1, Histone deacetylase 8 (Homo sapiens, UniProt Q9BY41)
T1 sequence (Q9BY41 whole entry): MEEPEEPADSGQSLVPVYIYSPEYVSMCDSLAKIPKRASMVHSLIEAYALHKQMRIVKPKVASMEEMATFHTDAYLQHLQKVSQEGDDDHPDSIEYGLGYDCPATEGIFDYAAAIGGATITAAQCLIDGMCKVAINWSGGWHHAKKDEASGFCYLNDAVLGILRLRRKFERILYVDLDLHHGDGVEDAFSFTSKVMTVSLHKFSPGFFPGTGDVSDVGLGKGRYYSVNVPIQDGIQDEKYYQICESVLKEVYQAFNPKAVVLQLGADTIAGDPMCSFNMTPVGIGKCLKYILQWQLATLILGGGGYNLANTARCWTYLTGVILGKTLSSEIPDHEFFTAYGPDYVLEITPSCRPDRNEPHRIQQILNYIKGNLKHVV
Description: Inhibition of Histone deacetylase 8 (HDAC8) of HeLa nuclear extracts

[1] = biological target: T2, Protein deacetylase HDAC6 (Homo sapiens, UniProt Q9UBN7)
T2 sequence (Q9UBN7 whole entry): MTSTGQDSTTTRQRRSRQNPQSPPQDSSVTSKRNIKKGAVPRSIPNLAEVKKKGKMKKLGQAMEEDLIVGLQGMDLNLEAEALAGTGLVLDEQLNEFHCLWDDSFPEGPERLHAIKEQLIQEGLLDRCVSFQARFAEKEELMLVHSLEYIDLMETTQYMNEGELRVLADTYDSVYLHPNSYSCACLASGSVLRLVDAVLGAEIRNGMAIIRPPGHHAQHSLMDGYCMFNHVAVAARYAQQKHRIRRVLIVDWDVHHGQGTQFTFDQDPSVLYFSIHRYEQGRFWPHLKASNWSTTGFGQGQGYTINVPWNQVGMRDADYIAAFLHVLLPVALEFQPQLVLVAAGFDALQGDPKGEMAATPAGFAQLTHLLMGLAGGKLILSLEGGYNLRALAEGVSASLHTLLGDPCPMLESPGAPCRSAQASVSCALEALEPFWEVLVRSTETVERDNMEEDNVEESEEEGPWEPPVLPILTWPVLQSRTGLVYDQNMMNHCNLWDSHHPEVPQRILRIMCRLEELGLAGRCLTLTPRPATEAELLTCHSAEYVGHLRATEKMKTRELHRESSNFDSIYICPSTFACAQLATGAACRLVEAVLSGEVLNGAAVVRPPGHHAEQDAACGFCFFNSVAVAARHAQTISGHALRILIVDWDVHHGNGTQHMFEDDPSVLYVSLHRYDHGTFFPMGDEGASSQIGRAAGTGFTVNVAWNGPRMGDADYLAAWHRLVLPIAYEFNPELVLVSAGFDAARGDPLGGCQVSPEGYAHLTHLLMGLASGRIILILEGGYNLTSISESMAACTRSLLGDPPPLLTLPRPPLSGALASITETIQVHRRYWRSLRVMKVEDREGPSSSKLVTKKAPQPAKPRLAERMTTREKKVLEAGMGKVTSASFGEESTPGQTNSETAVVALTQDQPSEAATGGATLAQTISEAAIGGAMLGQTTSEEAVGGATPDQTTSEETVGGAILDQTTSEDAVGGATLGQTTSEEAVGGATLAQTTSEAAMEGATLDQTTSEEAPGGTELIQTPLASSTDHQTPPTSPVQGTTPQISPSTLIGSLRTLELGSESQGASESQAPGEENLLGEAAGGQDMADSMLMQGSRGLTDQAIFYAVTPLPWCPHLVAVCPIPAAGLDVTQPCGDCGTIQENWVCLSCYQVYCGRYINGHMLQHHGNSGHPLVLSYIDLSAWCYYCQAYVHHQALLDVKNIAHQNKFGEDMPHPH
Description: Inhibition of Histone deacetylase 6 (HDAC6) of HeLa nuclear extracts

Histone deacetylase 1 = Histone deacetylase 1 (Homo sapiens, UniProt Q13547)
Description: Inhibition of Histone deacetylase 1 (HDAC1) of HeLa nuclear extracts

Jurkat = experiment: Compound was tested for anti-proliferative activity in Jurkat human leukemia cell line; type: functional, cell-based
U-937 = experiment: Compound was tested for anti-proliferative activity in U-937 human leukemia cell line; type: functional, cell-based
Homo sapiens = species on record: Homo sapiens; experiment: Compound was tested for anti-proliferative activity in human hepatocytes; type: functional, organism-based; details: Hepatocyte
[2] = Activity in histone hyperacetylation assay in cells; type: functional
[3] = system: bone marrow cells (Homo sapiens); experiment: cells

Histone deacetylase 1, sequence (Q13547 whole entry): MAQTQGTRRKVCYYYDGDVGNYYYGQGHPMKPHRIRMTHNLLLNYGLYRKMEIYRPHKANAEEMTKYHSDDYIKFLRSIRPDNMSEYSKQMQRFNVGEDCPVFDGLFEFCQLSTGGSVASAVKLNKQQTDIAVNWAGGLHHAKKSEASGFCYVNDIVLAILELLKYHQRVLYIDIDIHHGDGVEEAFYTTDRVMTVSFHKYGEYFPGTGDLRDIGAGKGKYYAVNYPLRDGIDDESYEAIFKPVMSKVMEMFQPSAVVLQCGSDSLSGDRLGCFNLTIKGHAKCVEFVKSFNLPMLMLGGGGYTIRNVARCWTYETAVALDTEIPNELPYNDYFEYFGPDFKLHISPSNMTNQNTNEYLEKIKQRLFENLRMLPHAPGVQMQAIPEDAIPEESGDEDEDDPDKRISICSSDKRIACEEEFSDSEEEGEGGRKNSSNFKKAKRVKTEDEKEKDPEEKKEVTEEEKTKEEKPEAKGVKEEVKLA
Histone deacetylase 2, sequence (Q92769 whole entry): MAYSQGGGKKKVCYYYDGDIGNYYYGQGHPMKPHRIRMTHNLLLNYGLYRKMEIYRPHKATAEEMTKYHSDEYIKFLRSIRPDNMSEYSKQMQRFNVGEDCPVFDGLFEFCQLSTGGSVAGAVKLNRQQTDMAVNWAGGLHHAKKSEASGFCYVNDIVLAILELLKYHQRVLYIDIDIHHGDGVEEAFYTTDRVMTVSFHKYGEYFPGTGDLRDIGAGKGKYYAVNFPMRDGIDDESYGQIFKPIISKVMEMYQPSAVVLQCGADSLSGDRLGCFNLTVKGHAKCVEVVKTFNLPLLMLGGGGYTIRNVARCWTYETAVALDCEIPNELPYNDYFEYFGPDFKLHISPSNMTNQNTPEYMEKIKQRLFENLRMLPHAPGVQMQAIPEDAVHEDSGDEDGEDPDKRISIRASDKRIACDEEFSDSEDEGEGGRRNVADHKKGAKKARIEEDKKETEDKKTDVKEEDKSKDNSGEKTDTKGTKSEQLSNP

| IC50 (Histone deacetylase) | IC50 (Histone deacetylase 2) | IC50 (Histone deacetylase 8) | IC50 [1] | IC50 (Histone deacetylase 1) | SMILES | EC50 (Jurkat) | EC50 (U-937) | EC50 (Homo sapiens) | EC50 [2] | EC50 [3] |
| --- | --- | --- | --- | --- | --- | --- | --- | --- | --- | --- |
| 50 µM | 5.9 µM | 0.65 µM | 3.1 µM | 5.7 µM | O=CN(O)CCCCCCCC(=O)Nc1cccc2ccccc12 | – | – | – | – | – |
| – | 19 µM | 6.8 µM | 2.8 µM | – | O=CN(O)CCCCCC(=O)Nc1ccccc1 | – | – | – | – | – |
| 4.4 µM | 1.4 µM | 7 µM | 0.6 µM | 1.3 µM | O=CN(O)CCCCCNC(=O)c1ccc2ccccc2c1 | – | – | – | – | – |
| – | > 100 µM | > 100 µM | > 100 µM | – | CC(=O)N(O)CCCCCCCC(=O)Nc1ccccc1 | – | – | – | – | – |
| > 100 µM | 41 µM | 9.7 µM | 30 µM | 49 µM | O=CN(O)CCCCCNC(=O)CCc1ccccc1 | – | – | – | – | – |
| – | > 100 µM | > 100 µM | > 100 µM | – | COC(=O)N(O)CCCCCCC(=O)Nc1ccccc1 | – | – | – | – | – |
| – | 7.8 µM | 2.8 µM | 5.5 µM | – | O=CN(O)CCCCCCCC(=O)Nc1ccccc1 | – | – | – | – | – |
| – | – | – | – | – | O=C(CCCCCCC(=O)Nc1ccccc1)NO [VORINOSTAT] | 2.3 µM | 33 µM | – | – | – |
| – | 11 µM | 4 µM | – | – | O=CN(O)CCCCCCC(=O)Nc1ccccc1 | – | – | – | – | – |
| 4 µM | 0.89 µM | 0.78 µM | 0.91 µM | 0.81 µM | O=CN(O)CCCCCCCC(=O)Nc1ccc2ccccc2c1 | – | – | – | – | – |
| > 100 µM | 26 µM | 22 µM | 4.3 µM | 30 µM | O=CN(O)CCCCCNC(=O)c1ccccc1 | – | – | – | – | – |
| > 100 µM | > 100 µM | > 100 µM | > 100 µM | – | CC(=O)N(O)CCCCCC(=O)Nc1ccccc1 | – | – | – | – | – |

| SMILES | IC50 (Histone deacetylase) | IC50 (Histone deacetylase 2) | IC50 (Histone deacetylase 8) | IC50 [1] | IC50 (Histone deacetylase 1) | EC50 (Jurkat) | EC50 (U-937) | EC50 (Homo sapiens) | EC50 [2] | EC50 [3] |
| --- | --- | --- | --- | --- | --- | --- | --- | --- | --- | --- |
| O=CN(O)CCCCCC(C(=O)Nc1cnc2ccccc2c1)C(=O)Nc1cnc2ccccc2c1 | 0.97 µM | 0.2 µM | 0.69 µM | 0.78 µM | 0.16 µM | 11 µM | 40 µM | 41 µM | 5.1 µM | 78 µM |
| O=CN(O)CCCCCC(C(=O)Nc1ccc2ncccc2c1)C(=O)Nc1ccc2ncccc2c1 | 0.75 µM | 0.27 µM | 0.8 µM | 0.62 µM | 0.18 µM | 31 µM | 100 µM | > 500 µM | 10 µM | 130 µM |
